Values of other authors, collected in patent US20130116244A1, “PHAR[…] COMPOSITIONS” (AESICA FORMULATION DEVELOPMENT LIMITED, priority 2010, published 2013).

Experiments:
[1] = not given; remark: listed apart in the source
[2] = in vivo

Structure (SMILES) | time after which anticonvulsant/sedative effects wear off (typically) | duration of anticonvulsant/sedative effects (effects can last for) | diazepam dose equal in effect to lorazepam 1 mg (relative potency) [1] | half life [2]
CN1C(=O)CN=C(c2ccccc2)c2cc(Cl)ccc21 [diazepam] | 15 to 30 min |  |  | 
O=C1Nc2ccc(Cl)cc2C(c2ccccc2Cl)=NC1O (stereo not shown) [lorazepam, 7-chloro-5-(2-chlorophenyl)-1,3-dihydro-3-hydroxy-2H-1,4-benzodiazepin-2-one] |  | 12 to 24 h | 10 mg | 10 to 20 h
